This assay deals with NIH3T3 cells. Briefly: Destabilization mutant screening of human CA2 linked to GFP, ligand response by FACS (Valdecoxib, Celecoxib, Acetazolamide). The assay is classed as cell-based. The method, then: To identify destabilizing mutations of human CA2 that are stabilized upon ligand binding to CA2, two rounds of mutant screening were performed, using a lentivirus CA2 mutant library provided by Genscript (China). These methods were used to generate a library of mutant polypeptides using mutagenesis primers and error prone PCR. Lentiviral vectors expressing the template, wild-type human CA2 operably linked to GFP(OT-001986) was also provided by Genscript along with the CA2 mutant library. The library was packaged into lentivirus, transduced into NIH3T3 cells at a multiplicity of infection (MOI) of approximately 0.3 and select stable cell pools were derived by selecting with selection marker puromycin.
To identify cell pools containing destabilizing mutants of CA2 that are stabilizing when CA2 is bound to its corresponding ligand, cells were sorted using FACS. In the initial round, the bottom 15% of population that was GFP negative in the absence of ligand was selected. Cells were expanded and then treated with 10 μM Celecoxib for 24 hours and harvested for cell sorting. The top 11% GFP positive cells which were also responsive to ligand treatment compared to untreated were collected. Celecoxib was removed from the cultures and replaced with DMSO. […] Genomic DNA was isolated and amplified CA2 mutants were reintroduced to the lentiviral vectors where CA2 was operably linked to GFP. The constructs were transduced into NIH3T3 cells with lentivirus vectors for each clone. The cells were treated with 10 μM Valdecoxib or 10 μM Celecoxib for 24 hours and analyzed by FACS. […] In Table 25, the Construct ID (OT-XXXXXX) refers to the construct which includes the referenced CA2 mutant and the Library ID (LibCXXXXXX) refers to the CA2 mutant itself.
The response of NIH3T3 cells to varying doses of Valdecoxib or Celecoxib for 24 hours was measured and analyzed by FACS.
Clones treated with different ligands were compared to examine the behavior of each mutant with the ligands.

Where [1] appears, read: NIH3T3, 10 μM Celecoxib vs DMSO.
Where [2] appears, read: NIH3T3, 10 μM Valdecoxib vs DMSO.

Take “CA2 (aa 2-260 of WT, N61R, K80M, K212N, N231T, L250P) [LibC000198]”: the “Median PE” value turned out to be 535 (NIH3T3, 10 μM Celecoxib); 552 (NIH3T3, 10 μM Valdecoxib); 275 (NIH3T3, DMSO). The “SR (stabilization ratio)” value is, setting by setting: under setting [1], 1.95; under setting [2], 2; (NIH3T3, DMSO (reference)) 1.
In the case of CA2 (aa 2-260 of WT, S73F) [LibC000212], the “Median PE” value by setting is: (NIH3T3, 10 μM Celecoxib) 30700; (NIH3T3, 10 μM Valdecoxib) 30700; (NIH3T3, DMSO) 30100. Further, the “SR (stabilization ratio)” value under setting [1] is 1.02; the “SR (stabilization ratio)” value under setting [2] stood at 1.02; the “SR (stabilization ratio)” value (NIH3T3, DMSO (reference)) was 1.
With CA2 (aa 2-260 of WT, G12R) [LibC000211], the “Median PE” value reads like this: (NIH3T3, 10 μM Celecoxib) 20800; (NIH3T3, 10 μM Valdecoxib) 19800; (NIH3T3, DMSO) 13000. For the same substance, the “SR (stabilization ratio)” value is, setting by setting: under setting [1], 1.6; under setting [2], 1.52; (NIH3T3, DMSO (reference)) 1. Moreover, the “MFI, comparative analysis, normalized to parental day 1” value (NIH3T3, Celecoxib μM (concentration not given)) was 16550.54 and the “MFI, comparative analysis, normalized to parental day 1” value (NIH3T3, Valdecoxib μM (concentration not given)) amounted to 15754.84. Also, where the note is “NIH3T3, DMSO”, the “MFI, comparative analysis” value is 10344.09.
Consider “CA2 (aa 2-260 of WT, T35I, Y114H, P154L, D161V, P200A, F225L, E233D, W244*) [LibC000188]”, for which the “Median PE” value reads like this: (NIH3T3, 10 μM Celecoxib) 225; (NIH3T3, 10 μM Valdecoxib) 228; (NIH3T3, DMSO) 206. The “SR (stabilization ratio)” value reads like this: under setting [1], 1.09; under setting [2], 1.11; (NIH3T3, DMSO (reference)) 1.
As to CA2 (aa 2-260 of WT, L47R) [LibC000220], the “Median PE” value (NIH3T3, 10 μM Celecoxib) is given as 384; the “Median PE” value (NIH3T3, 10 μM Valdecoxib) was 408; the “Median PE” value (NIH3T3, DMSO) amounted to 311. The “SR (stabilization ratio)” value is, setting by setting: under setting [1], 1.2; under setting [2], 1.31; (NIH3T3, DMSO (reference)) 1.
“CA2 (aa 2-260 of WT, H17D, P30S, G81V, K132R, S151I, A152D, A173G, W191*) [LibC000191]”: the “Median PE” value by setting is: (NIH3T3, 10 μM Celecoxib) 173; (NIH3T3, 10 μM Valdecoxib) 177; (NIH3T3, DMSO) 160. In addition, the “SR (stabilization ratio)” value is reported as 1.08 under setting [1]; 1.11 under setting [2]; 1 (NIH3T3, DMSO (reference)).

The record behind these values is patent publication US20230026259A1, “CA2 COMPOSITIONS AND METHODS FOR TUNABLE REGULATION” (Obsidian Therapeutics, Inc., priority 2019, published 2023).
